Laboratory results taken from a compilation of properties of binary mixtures (doi:10.1039/c3ra40303c).

Assay: xn = mol fraction of the nth substance listed
Conditions: 101 kPa

CC(O)C(=O)[O-].C[N+](C)(C)CCO + O
viscosity [mPa·s]
Conditions	x2 = 0	x2 = 0.0992	x2 = 0.2048	x2 = 0.3008	x2 = 0.4038	x2 = 0.5026	x2 = 0.5858	x2 = 0.701	x2 = 0.7993	x2 = 0.8998
293.15 K	818	620	478	375	259.2	–	117.8	59.52	–	–
298.15 K	–	433	336.9	266.4	–	128	–	45.76	–	6.185
303.15 K	393	–	242.5	193.6	138.2	95.8	66.88	35.7	16.85	5.25
308.15 K	283.9	225.3	178.9	–	104.4	73.36	51.91	28.36	13.79	–
313.15 K	209.9	168.3	134.9	107.7	80.45	57.24	41.04	22.9	11.44	–
318.15 K	158.7	128.4	103.9	85.2	63.16	45.5	32.99	18.78	–	3.405
323.15 K	122.3	99.8	81.5	67.27	50.43	36.74	26.93	–	–	3.001
328.15 K	95.9	78.9	64.95	54	40.89	30.11	22.29	13.14	–	2.666
333.15 K	76.5	63.39	–	–	33.61	24.92	18.67	–	6.101	2.384
338.15 K	61.9	51.63	43.1	36.28	27.97	20.93	15.82	9.621	5.323	2.146
343.15 K	50.76	42.6	35.8	30.3	23.55	17.78	13.55	8.353	4.692	1.941
348.15 K	42.13	35.55	30.05	25.59	20.05	15.25	11.71	7.305	4.171	–
353.15 K	35.38	–	25.52	21.82	17.22	13.2	10.2	6.438	–	–

CC(O)C(=O)[O-].C[N+](C)(C)CCO + CCO
viscosity [mPa·s]
Conditions	x2 = 0	x2 = 0.1039	x2 = 0.2011	x2 = 0.2996	x2 = 0.3999	x2 = 0.5003	x2 = 0.601	x2 = 0.7013	x2 = 0.7987	x2 = 0.8996
293.15 K	818	553	365	–	132.5	73.48	39.35	–	–	3.602
298.15 K	559	388	263.7	165.1	101.5	57.11	31.94	14.73	–	3.207
303.15 K	393	277.4	193.2	123.9	78.06	45.19	–	12.36	6.351	–
308.15 K	283.9	203.7	–	94.9	61.01	36.35	21.38	10.49	5.524	2.548
313.15 K	209.9	152.9	110.8	74.08	48.57	29.65	17.83	8.99	4.841	2.286
318.15 K	–	117.2	86.3	58.82	39.27	24.51	–	7.773	4.27	2.059
323.15 K	122.3	–	68.43	47.45	32.22	–	12.83	6.779	–	1.862
328.15 K	95.9	–	55.07	38.8	26.76	17.33	–	5.952	–	1.685
333.15 K	76.5	–	44.95	32.13	22.49	14.8	–	5.255	3.041	1.525
338.15 K	61.9	47.9	37.15	26.9	–	12.76	8.445	4.66	2.747	1.38
343.15 K	50.76	39.73	31.06	22.76	16.36	11.09	7.459	4.145	2.498	1.265
